Assay [1] concerns human gastric cancer cells (MKN-45). In words: Growth-inhibiting activity (CTX) against cancer cells, Thiazoyl Blue assay. In kind it is cell-based. Particulars: MKN-45 cells, 72 hours incubation with test compound, absorbance at 560 nm. The protocol: (§1) 50 µl of a cell culture medium (RPMI-1640 medium containing 10% bovine fetal serum) containing 1 x 10^3 mouse leukemia cells (P388), human gastric cancer cells (MKN-45), human pulmonary cancer cells (PC-13) or human rectal cancer cells (DLD-1) was pipetted into the wells of a 96-well microplate, and incubated at 37°C under 5% CO2 for 24 hours. Then, 50 µl of a test solution containing each test compound was added, and the culture medium was further incubated at 37°C under 5% CO2 for 72 hours. After 10 µl of 0.5% Thiazoyl Blue was added to the culture medium, an enzyme reaction was carried out by incubating the culture medium at 37°C under 5% CO2 for 2 hours. After the reaction was stopped by the addition of 20% sodium dodecyl sulfate (SDS), the culture medium was further incubated at 37°C for 16 hours to dissolve the pigment so formed. Then, the absorbances at 560 nm were measured and compared with that obtained in a control group. The compound of the formula [drawing 7] was used as the control compound.

Assay [2] relates to human pulmonary cancer cells (PC-13). The description is as above. It is filed as cell-based. Particulars: PC-13 cells, 72 hours incubation with test compound, absorbance at 560 nm. The procedure:
as §1

Assay [3] concerns human rectal cancer cells (DLD-1). The assay is described as above. The settings on record: DLD-1 cells, 72 hours incubation with test compound, absorbance at 560 nm. It is filed as cell-based. The procedure: as §1
In assay [4] the test system is mouse leukemia cells (P388). The assay is described as above. In kind it is cell-based. Particulars: 72 hours incubation with test compound, absorbance at 560 nm. The procedure: as §1
In assay [5] the test system is human gastric cancer MKN-45. The assay can be described thus: Effect on human gastric cancer MKN-45 solid tumor transplanted under the skin of mice. In kind it is in vivo. Particulars: Mus musculus, MKN-45, iv, total dose at which tumor growth was inhibited by 75%, injection into the caudal vein, read-out: GID75 (mg/kg total). The procedure:
A MKN-45 solid tumor which had previously been grown by transplantation under the skin of a nude mouse was minced, and 3 mm cubes of the tumor were transplanted under the skin of mice used for this test. Starting from the time when the transplanted tumor grew to 0.3 cm^3, a treatment was carried out by injecting a dose of each test drug into the caudal vein of the mice, once a day, for 5 consecutive days and, after two days' pause, injecting the test drug for 5 days (treatment schedule: 5/w x 2) or four times at intervals of 3 or 4 days (treatment schedule: 2/w x 2). Twenty or thirty-two days after the start of the treatment, the larger diameter (L) and smaller diameter (W) of the tumor were measured, and its volume (V) was determined ( […] [formula] ). The degree of tumor growth inhibition was calculated from this volume, and the total dose at which the tumor growth was inhibited by 75% (GID75, mg/kg) was determined.

Experimental findings from patent EP0760375A1, “ANTITUMOR INDOLOPYPROLOCARBAZOLE DERIVATIVE” (BANYU PHARMACEUTICAL CO., LTD., priority 1994, dated 1995) are described below.

Read-outs that look alike come from different tables or passages of the source.

By IC50 is commonly meant the midpoint of a concentration-inhibition curve.

Consider `O=C1c2c(c3c4cccc(O)c4n([C@@H]4O[C@H](CO)[C@@H](O)[C@H](O)[C@H]4O)c3c3[nH]c4c(O)cccc4c23)C(=O)N1NC(CO)CO` [Compound [I-A]], for which the IC50 stood at 0.29 µM in assay [1], 0.34 µM in assay [2], 0.67 µM in assay [3] and 0.037 µM in assay [4]. Besides, in assay [5] (treatment schedule 5/w x 2), the ED75 came to 27 mg/kg.

Turning to `O=C1c2c(c3c4ccc(O)cc4n([C@@H]4O[C@H](CO)[C@@H](O)[C@H](O)[C@H]4O)c3c3[nH]c4cc(O)ccc4c23)C(=O)N1NC(CO)CO` [Compound [I-B]], the concentration for half-maximal inhibition (IC50) came to 0.011 µM in assay [1], 0.035 µM in assay [2], 0.1 µM in assay [3] and 0.002 µM in assay [4]. The ED75 in assay [5] (treatment schedule 2/w x 2) is 3 mg/kg.

For the molecule `O=CNN1C(=O)c2c(c3c4cccc(O)c4n([C@@H]4O[C@H](CO)[C@@H](O)[C@H](O)[C@H]4O)c3c3[nH]c4c(O)cccc4c23)C1=O` [Control compound, reference compound], the half-maximal inhibitory concentration (IC50) came out at 0.5 µM in assay [1], 1.4 µM in assay [2], 73 µM in assay [3] and 0.12 µM in assay [4]. In addition, the ED75 in assay [5] (treatment schedule 5/w x 2) came out at 170 mg/kg.
